Key:
[1] = Pharmacokinetics of inhaled (pulmonary/nasal) aerosolized raloxifene in cynomolgus monkeys (Working Example 1)
Experimental: (§1) Six adult cynomolgus monkeys (three males and three females) were used for this study. Males weighed from 5.3 kg to 5.5 kg at the start of the live phase. Females weighed from 3.8 kg to 4.9 kg at the start of the live phase. Each animal was uniquely identified with a number tattooed on the inner thigh.
(§2) The animals were housed individually in stainless steel cages. Rooms were thermostatically set to maintain a temperature of 72° F. and maintain an actual temperature within 8° F. from that set point. The environmental control system is designed to maintain a relative humidity of 20% and a maximum of 80%. Light was on a 12 hour cycle, with lights on between 0600 and 1800. […] On test days, the animals were given primate chow only after the completion of the inhalation exposures. Water was available ad libitum except during exposure times.
(§3) Prior to beginning the live phase of the study, the monkeys were conditioned, over an approximately 3 month period, to be caught, handled, and placed in a restraint chair using the pole-and-collar method. Foods like peanuts, marshmallows, and a variety of dried and fresh fruits were used as training rewards. The time that the monkeys were left in the chair was increased gradually up to 8 hours. By the end of the training period, all the monkeys could be caught quickly, placed into the restraint chair easily, and would allow limb manipulation, including having blood drawn, while in the chair.
(§4) Each monkey was studied once per week for 5 weeks. Target concentrations of raloxifene activity were 0, 3, 10, 0, and 30 mg/m^3 for Weeks 1 through 5 respectively. The activity was determined by correcting the amount of raloxifene collected by the potency of the lot used. Each exposure was for 8 hours, divided into 4 hour segments with 15 minutes in between. During the 15 minute period between the 4 hour exposures, the monkeys were offered juice to drink and apple pieces to eat. The conditioning period described above had used this method to keep the animals from becoming agitated due to hunger or thirst. A 15 minute break in the exposures was not expected to affect the blood levels of raloxifene.
(§5) The monkeys were placed into the restraint prior to each exposure. Two sheets of latex (0.030 in. thick) were placed around the animal's necks to form a seal. A 7-L head dome was placed over the animal's heads as described in J. Appl. […] Airflow of 15 L/min was maintained through the head dome via a calibrated transvector on the exhaust port. The raloxifene was aerosolized using a Wright Dust Feed II. […] The aerosol then entered the head-dome for the monkey to breath.
(§6) Each day, before the monkeys were exposed, the exposure system was set up and a gravimetric sample was taken to determine the raloxifene concentration. The monkey was then placed in the chair and the aerosol was generated using the same generator settings. After the exposure to the monkey, it was removed from the chair, the system re-assembled, and another gravimetric sample taken. The concentrations derived from the 2 gravimetric samples were averaged to obtain the raloxifene concentration for that exposure. Gravimetric concentrations were determined by collecting the aerosol directly from the head-dome onto a 25 mm Gelman type A/E glass fiber filter.

[2] = cynomolgus monkey, in vivo
Experimental: as §1, §2, §3, §4, §5, §6

[3] = cynomolgus monkey, in vivo; remark: listed apart in the source

O=C(c1ccc(OCCN2CCCCC2)cc1)c1c(-c2ccc(O)cc2)sc2cc(O)ccc12 [raloxifene]
Cmax (Mean Ralox.) ([1]; 8 h inhalation, exposure conc. 3.3 mg Ralox./m^3 of air, plasma): 7 ng/mL
Cmax (Mean Ralox.) ([1]; 8 h inhalation, exposure conc. 9.7 mg Ralox./m^3 of air, plasma): 17 ng/mL
Cmax (Mean Ralox.) ([1]; 8 h inhalation, exposure conc. 26.9 mg Ralox./m^3 of air, plasma): 47 ng/mL
AUC ratio of raloxifene/total raloxifene ([1]; inhalation, 10 mg/m^3 dose group): 0.56
AUC ratio of raloxifene/total raloxifene ([1]; inhalation, 30 mg/m^3 dose group): 0.82
sex differences in raloxifene, total raloxifene, Cmax, or AUC values ([1]; inhalation, males and females): No appreciable sex differences
blood levels by pulmonary/nasal delivery relative to oral administration ([1]; oral administration at an equivalent dose as comparison): considerably higher than those obtained following oral administration
bioavailability ([1]; pulmonary/nasal delivery): unexpected high level of bioavailability
Cmax (Mean Tot. Ralox.) ([1]; total raloxifene, 8 h inhalation, exposure conc. 26.9 mg Ralox./m^3 of air, plasma): 84 ng/mL
blood levels of raloxifene (level and duration) [2]: relatively higher blood levels of raloxifene which lasted for several hours
initial levels of unmetabolized raloxifene absorbed into the blood [2]: higher, relative to oral delivery
breathing frequency [3]: no significant changes
tidal volume [3]: no significant changes
